As usually defined, the solubility is the dissolved amount per volume that the medium holds. A higher solubility goes with a readily soluble substance. What is called IC50 is the point on the concentration scale where inhibition reaches its midpoint. A higher IC50 goes with lower potency. Broadly, the Kd is the equilibrium constant for the complex coming apart. Usually kinetic solubility stands for solubility judged after dilution from a stock solution rather than from solid.

The values that follow come from paper PMC10868801, “Characterization of covalent inhibitors that disrupt the interaction between the tandem SH2 domains of SYK and FCER1G phospho-ITAM” (PLOS ONE, 2024).

The test system of data set [1] is primary neuron-glia cultures. Further details: method as in PMID 37009452. The following applies: cited from earlier work.
Another data set has as its system SH-SY5Y cells. On the set-up: method as in PMID 31324720. The following applies: 5 μM, cited from earlier work.
The subject of another data set is Tg Tau P301S mice. The settings on record: cited from earlier work.
In another data set the target is MSN (Homo sapiens, UniProt P26038). In words: Covalent labelling and intact mass spectrometry (selectivity). The settings on record: 100 μM, 1 h, room temperature; four available cysteines.
MSN, sequence (P26038 whole entry, species assumed, the tested form may be a part): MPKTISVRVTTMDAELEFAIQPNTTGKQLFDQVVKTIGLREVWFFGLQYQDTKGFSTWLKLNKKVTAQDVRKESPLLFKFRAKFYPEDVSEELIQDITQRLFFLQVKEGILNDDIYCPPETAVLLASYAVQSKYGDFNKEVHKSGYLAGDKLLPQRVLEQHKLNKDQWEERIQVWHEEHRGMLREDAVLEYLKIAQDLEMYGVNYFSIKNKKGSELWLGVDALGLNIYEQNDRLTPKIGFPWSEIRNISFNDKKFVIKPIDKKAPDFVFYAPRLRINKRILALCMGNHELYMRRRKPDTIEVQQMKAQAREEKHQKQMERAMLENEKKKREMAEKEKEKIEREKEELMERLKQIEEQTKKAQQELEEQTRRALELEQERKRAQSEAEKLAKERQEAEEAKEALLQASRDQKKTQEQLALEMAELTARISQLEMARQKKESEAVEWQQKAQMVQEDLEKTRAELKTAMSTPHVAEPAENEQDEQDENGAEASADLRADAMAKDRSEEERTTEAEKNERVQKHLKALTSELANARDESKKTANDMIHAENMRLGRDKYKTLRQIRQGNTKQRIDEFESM
Data set [2] concerns the target T1, SYK-tSH2 (Homo sapiens, UniProt P43405). In words: Covalent labelling and intact mass spectrometry. Further details: tandem SH2 domains of human SYK (residues M6-N269); 6xHis (N, cleaved yes); made in house; host or cells: E. coli BL21(DE3)-R3-pRARE. The following applies: 100 μM, 1 h. The format is binding. The source says: The HTS hits 13 and 37 contain a kojic acid moiety, which is proposed to react covalently with proteins in the literature. As a result, we thought that it was likely these compounds are also reacting covalently with SYK-tSH2. […] When bound to the protein, these kojic acid-derived compounds have a 94 Da decrease in mass due to the loss of the pyridin-2-amine leaving group to reveal a Michael acceptor that can react covalently with cysteine residues (Fig 5B).
To expand on the initial 40 putative hits that were identified via uHTS (Fig 3D), additional commercially available structural analogues were ordered and screened via TR-FRET and differential scanning fluorimetry (DSF) (S1 Table). […] The observation of a substantial reduction in protein melting temperature motivated us to determine if the compounds interacted covalently with the SYK-tSH2 domains. Additionally, since the thiourea in these small molecules is reported to react via oxidation, the compounds could be capable of forming a covalent disulfide bond with cysteine residues on SYK [39]. We used compound 1, which is a known covalent modifier of SYK-tSH2, as a positive control in the mass spectrometry analysis. […] Literature reports support that this type of chemical reaction can occur in DMSO, forming a disulfide bond. […] Like we had originally observed for the older DMSO stock solution of 42 (Fig 6C), 44 forms two to four mass adducts (422 Da and 844 Da) more than the protein mass when incubated SYK-tSH2 for 1 h (Fig 6D). […] Due to the mass adducts of two to four (422 Da and 844 Da), we propose that 44 is forming a disulfide bond with between two or four cysteines on SYK-tSH2 (Fig 6G).

For data set [3], the target named is T2, full length SYK and FCER1G (Homo sapiens, UniProt P43405).
T2 construct: full length GST-SYK and FCER1G-Flag were co-expressed in HEK293 cells prior to lysis; expressed in transfected cells; host or cells: HEK293T (CRL-3216, ATCC)
In words: GST pull-down (GST-PD) of GST-SYK and FCER1G-Flag from HEK293T cell lysates. The format is biochemical. The following applies: for PPI disruption in GST-PD: dose-response format; for Inhibition of SYK-GST / FCER1G-Flag interaction in pulldown: single concentration (100 μM). As to the method: Pull-down assays were used as an orthogonal assay to determine if the compounds could disrupt the PPI between full length SYK and FCER1G proteins from cell lysates. To optimize GST pulldown assays, full length GST-SYK and FCER1G-Flag were co-expressed in HEK293 cells prior to lysis and the protein expression and cell lysate concentrations tested (Fig 4A). All 40 compounds that progressed from uHTS were tested via GST-PD at a single concentration (100 μM) to determine if they could inhibit the PPI between the full-length proteins, with the p-ITAM FCER1G peptide used as a positive control (Fig 4B). […] Compound 24 contains a promiscuous maleimide, which is well known to react indiscriminately with proteins.
GST-, VF-tagged human SYK and FCER1G plasmids for mammalian expression were generated using Gateway cloning technology (Invitrogen) as described previously. The DNA was purified using ZymoPURE Plasmid Maxiprep Kit (D4203, Zymo Research).
WB secondary antibodies: peroxidase-conjugated AffiniPure Goat Anti-Mouse IgG (H+L) (115-035-003, Jackson Immuno Research) 1:5000 dilution in TBST. GST pulldown was performed as described with minor changes. HEK293T (CRL-3216, ATCC) were cultured in Dulbecco’s modified Eagle’s medium with 4.5 g/L glucose, L-glutamine, and sodium pyruvate (10–013-CV, Corning) supplemented with 10% fetal bovine serum and 1% penicillin/streptomycin solution (30–002-CI, CellGro). Cells were incubated at 37°C in humidified conditions with 5% CO2. The HEK293T cells were transfected using 1 mg/mL Polyethylenimine (PEI; 23966, Polysciences) in a ratio of 3 μL to 1 μg DNA. The proteins were expressed for 48 h at 37°C. Cell pellets were re-suspended in the SYK lysis buffer (25 mM HEPES, pH 7.5, 200 mM NaCl, 0.5% Triton X100 (T9284-1L, Sigma-Aldrich), followed by sonication for 10 s (5 s on, 5 s off) at 4°C. Cells were pelleted by 10 min centrifugation at 13,000 rpm at 4°C. The cleared lysates were first pre-incubated with compounds for 30 min and then incubated with glutathione sepharose 4B beads (17075605, Cytiva Sweden AB) at 4°C for 2 h with rotation. After the incubation, beads were washed three times with the SYK lysis buffer, eluted by boiling in sodium dodecyl sulfate-polyacrylamide gel electrophoresis (SDS–PAGE) loading buffer (1610737, Bio-Rad), and analyzed by western blotting.

Data set [4] is described as follows: Compound solubility with nephelometer. The format is physicochemical. The settings on record: aqueous buffer, kinetic from dmso stock, PBS, 90 min at room temperature. As to the method:
Stock compound (10 mM in DMSO) was serial diluted in PBS (21-040-CV, Corning) in 96-well Costar Assay plate (3904, Corning). After incubating compound in PBS for 90 min at room temperature, the Nephelometric turbidity units (NTUs) were measured with NEPHELOstar (BMG LABTECH, Cary, North Carolina). 0.2 s was used for a measure time and PBS only as the background. Each sample was tested in triplicate. Dose-response data was analyzed by GraphPad Prism and the solubility concentration is defined at the concentration that increases the NTUs at the turning point of the curve.

In data set [5] the target is T3, SYK-tSH2 / FCER1G p-ITAM interaction (Homo sapiens, UniProt P43405).
T3 construct: the tSH2 domain of SYK (residues M6-N269) fused to an N-terminal 6×His tag; made in house; host or cells: E. coli BL21(DE3)-R3-pRARE
In words: TR-FRET assay of 6xHis-SYK-tSH2 with FITC-labeled FCER1G p-ITAM peptide. The class given is biochemical. The source says: To facilitate identification of inhibitors of the SYK-FCER1G interaction, we developed a TR-FRET assay using recombinant protein comprising the tSH2 domain of SYK (residues M6-N269) fused to an N-terminal 6×His tag (S1A Fig). The TR-FRET assay is based on the interaction of a FITC-labeled FCER1G p-ITAM peptide to the 6×His-SYK-tSH2 protein in complex with a terbium-conjugated anti-His antibody (Tb-Ab) (Fig 3B). Once excited, a TR-FRET signal is generated from the Tb donor to the FITC acceptor fluorophore. […] To enable uHTS for large scale screening of small molecule libraries, we miniaturized the TR-FRET assay from 96-well plate format to a 1536-well.
TR-FRET experiments were performed in 20 μL reactions, using 384-well shallow-well microplates (PerkinElmer). Final reaction components contained 6xHis-SYK-tSH2 (SYKA-c020 tagged) (4 nM), FITC-conjugated FCER1G peptide (8 nM), Tb-conjugated anti-6xHis antibody (53 ng/ml; Cisbio) in assay buffer containing 25 mM HEPES (pH 7.5), 200 mM NaCl, 0.1% BSA and 0.05% Tween-20. After a 2h incubation (at room temperature), TR-FRET signals were measured on a BMG Labtech PHERAstar FSX reader using a Lanthascreen Optics Module. A 200 μs delay was used after excitation with a flash lamp before measurement of fluorescence emission at […]. TR-FRET ratios of fluorescent intensity at 520 nm to 490 nm were calculated. The half maximal inhibitory concentration (IC50) was determined by fitting a four parametric logistic curve to the data.
(In TR-FRET formats the signal depends on donor and acceptor labels being close together.)

A short description of data set [6]: LCMS characterization of fresh versus older DMSO stocks. The format is physicochemical. The following applies: older DMSO stocks versus freshly prepared solutions. The source says:
To expand on the initial 40 putative hits that were identified via uHTS (Fig 3D), additional commercially available structural analogues were ordered and screened via TR-FRET and differential scanning fluorimetry (DSF) (S1 Table). […] The observation of a substantial reduction in protein melting temperature motivated us to determine if the compounds interacted covalently with the SYK-tSH2 domains. Additionally, since the thiourea in these small molecules is reported to react via oxidation, the compounds could be capable of forming a covalent disulfide bond with cysteine residues on SYK [39]. We used compound 1, which is a known covalent modifier of SYK-tSH2, as a positive control in the mass spectrometry analysis. […] Literature reports support that this type of chemical reaction can occur in DMSO, forming a disulfide bond. […]
Supplementary file pone.0293548.s005.tiff: S4 Fig Identification of active disulfide compounds which form in DMSO solutions of compounds 42 and 43. […] LCMS Calculated for [M+H]^+ C7H9N4O2S: 213.04; observed: 213.1 [M+H]^+. […] LCMS Calculated for [M+H]^+ C14H15N8O4S2: 423.06; observed: 423.0 [M+H]^+. […] LCMS Calculated for [M+H]^+ C10H15N4O2S: 255.08; observed: 255.1 [M+H]^+. […] LCMS Calculated for [M+H]^+ C20H27N8O4S2: 507.15; observed: 507.1 [M+H]^+. […]

The target of data set [7] is T1, SYK-tSH2. In words: Bio-layer interferometry (BLI) direct binding. The following applies: biotinylated SYK-tSH2. For orientation: BLI is a label-free optical method that tracks binding on a fibre tip over time.
The nature of data set [8]: Kinetic solubility (Analiza, Inc., CLND). The class given is physicochemical. The settings on record: phosphate buffered saline, aqueous buffer, kinetic from dmso stock, PBS pH 7.4, 24 h incubation, by Analiza. As to the method:
Following 24 h incubation in a Millipore solubility filter plate, samples were vacuum filtered, and the filtrates collected for analysis. Filtrates were injected into the nitrogen detector for quantification via total chemiluminescent nitrogen determination (CLND). Filtrates were quantified with respect to a calibration curve generated using standards that span the dynamic range of the instrument. The reported solubility value has been corrected for background nitrogen present in the media and DMSO.

≈ marks a conversion by molar mass, not a printed value. Where two headings read alike, the source gives them in different places.

In the case of `COc1ccc(-c2cc3nccn3c(Nc3ncccc3C(N)=O)n2)cc1OC.Cl.Cl` [BAY61-3606, 2-[7-(3,4-Dimethoxyphenyl)-imidazo[1,2-c]pyrimidin-5-ylamino]nicotinamide Dihydrochloride], the “Microglial-mediated phagocytosis of synapses and neurons” value in data set [1] was “reduced microglial-mediated phagocytosis of synapses and neurons”. The LPS-induced neuronal loss result in [1] (primary neuron-glia cultures) is listed as “prevented lipopolysaccharide (LPS)-induced neuronal loss”. Further, in the data set with SH-SY5Y cells, the “p-AKT, p-mTOR and p-p70 S6K levels” value is “reduces p-AKT, p-mTOR, and p-p70 S6K levels”. Besides, the “Phosphorylated and total tau levels” value in the data set on SH-SY5Y cells (in vitro) is “reduces phosphorylated and total tau levels”. The “Levels of phospho-tau and total tau” value in the data set with Tg Tau P301S mice (Tg Tau P301S mice, 20 mg/kg, 12 weeks) is “reduced levels of phospho-tau (p-tau) and total tau (t-tau)”. The “Effect in mouse tauopathy models” value in the data set on Tg Tau P301S mice (mouse tauopathy models) is “decreased tau accumulation, neuronal and synaptic loss, neuroinflammation, and reversed defective autophagy”.
Turning to `O=c1cc(CO)oc(C(Nc2ccccn2)c2ccc(F)cc2)c1O` (stereo not shown) [compound 13], the “Number of mass adducts on MSN” value on MSN is “one weak mass adduct”. Besides, at SYK-tSH2 [2] (room temperature), the “Number of mass adducts on SYK-tSH2” value is “between one and five”. For the same compound, in [3], the “PPI disruption in GST-PD” value is recorded as “confirmed to disrupt the PPI” and the “Inhibition of SYK-GST / FCER1G-Flag interaction in pulldown” value was “able to inhibit the interaction”. Moreover, the concentration in solution in data set [4] (solubility at 90 min) was 100 µM (≈ 34.2 µg/mL).
On to `O=c1cc(CO)oc(C(Nc2ccccn2)c2ccc3c(c2)OCO3)c1O` (stereo not shown) [compound 37], for which the “Number of mass adducts on MSN” value at MSN was “one weak mass adduct”. In addition, on SYK-tSH2 [2] (room temperature), the “Number of mass adducts on SYK-tSH2” value is “between two and seven”. Moreover, in data set [3], the “PPI disruption in GST-PD” value is listed as “confirmed to disrupt the PPI” and the “Inhibition of SYK-GST / FCER1G-Flag interaction in pulldown” value is “able to inhibit the interaction”. This compound gave a solubility at 90 min in [4] of 100 µM (≈ 36.8 µg/mL).
In turn, `Cn1c(=O)c2[nH]c(=S)[nH]c2n(C)c1=O` [compound 42, 1,3-dimethyl-8-thioxo-3,7,8,9-tetrahydro-1H-purine-2,6-dione] returned an IC50 in data set [5] of 1.9 ± 0.2 µM. In addition, the “Stability in DMSO stock solution” value in data set [6] is given as “had formed corresponding disulfide dimers in DMSO over time”. The Kd at SYK-tSH2 [7] (BLI KD) is 99 ± 0.8 µM. Moreover, the “Covalent modification of SYK-tSH2” value was “did not form a covalent adduct” at SYK-tSH2 [2] (freshly prepared DMSO stock) and “covalently modifies SYK-tSH2” at SYK-tSH2 [2] (older DMSO stock solutions). On SYK-tSH2 [2] (older DMSO stock solution), the “Number of mass adducts on SYK-tSH2” value is “two”. For the same compound, in [8], the solubility (kinetic) at 24 h was 208 µM (≈ 44.1 µg/mL).
`CC(C)n1c(S)nc2c1c(=O)n(C)c(=O)n2C` [compound 43] had an IC50 in [5] of 3 ± 1.7 µM. In [6], the “Stability in DMSO stock solution” value is “had formed corresponding disulfide dimers in DMSO over time”. Moreover, the “BLI KD” value on SYK-tSH2 [7] is listed as “did not bind”. For the same compound, on SYK-tSH2 [7] (read-out: BLI KD), the Kd was greater than 100 µM. Moreover, the “Covalent modification of SYK-tSH2” value at SYK-tSH2 [2] (older DMSO stock solutions) is listed as “did not demonstrate covalent attachment”.
